This passage reports IC50 results from patent publication US7592336B2, “Hepatitis C virus inhibitors” (Bristol-Myers Squibb Company, priority 2005, dated 2009).

The assay deals with T1, HCV NS3/4A protease complex, J4L6S strain (Hepatitis C virus genotype 1b, UniProt O92972, C1454S/C1711G).
T1 construct: DNA encoding the recombinant HCV NS3/4A protease complex (amino acids 1027 to 1711) for these strains; inferred from pET21b vector and Ni-NTA purification; made in house; host or cells: Escherichia coli BL21 (DE3), pET21b
T1 sequence (O92972 1027-1711 C1454S/C1711G, one chain of several): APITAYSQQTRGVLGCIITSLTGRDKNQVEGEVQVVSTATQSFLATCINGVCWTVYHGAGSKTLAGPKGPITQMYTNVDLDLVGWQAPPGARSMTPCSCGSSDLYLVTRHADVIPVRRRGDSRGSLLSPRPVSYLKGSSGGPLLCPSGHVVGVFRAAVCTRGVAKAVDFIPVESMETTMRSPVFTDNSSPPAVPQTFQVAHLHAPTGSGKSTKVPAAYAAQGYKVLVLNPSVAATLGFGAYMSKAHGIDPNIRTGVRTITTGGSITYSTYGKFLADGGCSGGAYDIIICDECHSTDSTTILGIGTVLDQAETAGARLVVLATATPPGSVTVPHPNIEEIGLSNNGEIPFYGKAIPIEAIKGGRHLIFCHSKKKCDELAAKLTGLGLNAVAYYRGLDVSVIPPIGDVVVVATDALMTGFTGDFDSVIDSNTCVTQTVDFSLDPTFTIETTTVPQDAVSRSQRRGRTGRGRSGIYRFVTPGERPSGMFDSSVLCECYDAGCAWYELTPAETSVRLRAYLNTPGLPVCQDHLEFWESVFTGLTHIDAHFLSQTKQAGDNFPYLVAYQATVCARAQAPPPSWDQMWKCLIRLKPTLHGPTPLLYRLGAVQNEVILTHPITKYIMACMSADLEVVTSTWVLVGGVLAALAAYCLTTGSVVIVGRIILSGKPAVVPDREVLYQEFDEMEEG
In words: FRET peptide assay to monitor HCV NS3/4A proteolytic activity (J4L6S strain). Type of assay: biochemical, HCV genotype 1b. Particulars: read-out: IC50 against NS3/4A J4L6S strain. The text has this:
HCV NS3 protease complexes, derived from the BMS strain, H77 strain or J4L6S strain, were generated, as described below. These purified recombinant proteins were generated for use in a homogeneous assay (see below) to provide an indication of how effective compounds of the present disclosure would be in inhibiting HCV NS3 proteolytic activity.
The H77 and J4L6S strains were used for production of recombinant NS3/4A protease complexes. DNA encoding the recombinant HCV NS3/4A protease complex (amino acids 1027 to 1711) for these strains were manipulated as described by P. Gallinari et al. (see Gallinari P, Paolini C, Brennan D, Nardi C, Steinkuhler C, De Francesco R. Biochemistry. 38(17):5620-32, (1999)). Briefly, a three-lysine solubilizing tail was added at the 3′-end of the NS4A coding region. The cysteine in the P1 position of the NS4A-NS4B cleavage site (amino acid 1711) was changed to a glycine to avoid the proteolytic cleavage of the lysine tag. Furthermore, a cysteine to serine mutation was introduced by PCR at amino acid position 1454 to prevent the autolytic cleavage in the NS3 helicase domain. […]

On to `C=C[C@@H]1C[C@]1(NC(=O)[C@@H]1C[C@@](O)(c2ccc(-c3ccccc3)cc2)CN1C(=O)[C@@H](NC(=O)OC(C)(C)C)C(C)(C)C)C(=O)NS(=O)(=O)C1CC1` [Compound 3], for which the IC50 was determined as 0.9 nM.
